BindingDB's records for doi:10.1021/acschembio.6b00304 (Icahn School of Medicine At Mount Sinai, 2016)

Each compound was assayed against T1, Solute carrier family 2, facilitated glucose transporter member 1 (Homo sapiens, UniProt P11166) (assay: [3H]-2-Deoxy-D-glucose ([3H]-2-DG) Uptake Assay).
T1 sequence (P11166 whole entry): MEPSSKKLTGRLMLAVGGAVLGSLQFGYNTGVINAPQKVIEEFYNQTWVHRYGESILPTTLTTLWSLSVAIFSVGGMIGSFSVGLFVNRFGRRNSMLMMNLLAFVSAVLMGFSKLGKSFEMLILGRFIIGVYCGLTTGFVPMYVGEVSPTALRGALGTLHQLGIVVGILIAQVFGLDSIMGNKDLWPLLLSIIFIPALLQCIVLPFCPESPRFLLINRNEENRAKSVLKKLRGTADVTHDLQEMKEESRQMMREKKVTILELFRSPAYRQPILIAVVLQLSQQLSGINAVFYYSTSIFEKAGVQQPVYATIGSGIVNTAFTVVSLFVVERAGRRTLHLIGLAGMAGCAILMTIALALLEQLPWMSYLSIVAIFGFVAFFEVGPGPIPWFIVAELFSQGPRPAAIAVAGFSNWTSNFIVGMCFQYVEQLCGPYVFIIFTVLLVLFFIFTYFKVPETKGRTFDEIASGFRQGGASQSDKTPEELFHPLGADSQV
Protocol: The stably transfected CHO cells were seeded in poly 24-well plates and were grown to 80−90% confluence. […] The known hGLUT1 inhibitor phloretin (Accela ChemBio, San Diego, CA) was included as a positive control. […] Compounds were obtained from the National Cancer Institute (NCI) or purchased from commercial vendors. The reaction was terminated by washing cells twice with ice-cold PBS, followed by the addition of 200 μL of lysis buffer (0.1% (w/v) SDS, 0.1 N NaOH).Intracellular radioactivity was determined by scintillation counting.
`O=C(CCc1ccc(O)cc1)c1c(O)cc(O)cc1O[C@H]1O[C@@H](CO)[C@H](O)[C@@H](O)[C@@H]1O` [PUG-5 (Phlorizin)] showed an IC50 of 23 µM. `O=c1[nH]c(=O)c2ncn(-c3ccccc3)c2[nH]1` [PUG-2] was tested, and the IC50 was 58.6 µM. In the case of `O=c1[nH]ncc2c1Sc1cn[nH]c(=O)c1S2` [PUG-7], the IC50 is reported as 11.8 µM. In the case of `O=c1[nH][nH]c(=O)c2[nH]cnc12` [PUG-8], the IC50 is reported as 22.5 µM. Compound `CC[C@@H]1O[C@H](c2cc(O)cc(/C=C/c3ccc(O)c(O)c3)c2)[C@@H](O)[C@H](O)[C@H]1O` [PUG-6] has an IC50 of 37.9 µM. Work on `c1ccc(CNc2ncnc3n[nH]nc23)cc1` [PUG-4] yielded an IC50 of 30 µM. Work on `NNc1nc(NCc2ccco2)c2nc[nH]c2n1` [PUG-3] yielded an IC50 of 27.1 µM.
